This assay concerns the target Histone deacetylase (Homo sapiens) (UniProt Q13547+O15379+Q9UBN7+Q92769+Q9UQL6+Q8WUI4+Q9BY41+Q96DB2+P56524+Q9UKV0+Q969S8). Briefly: Inhibition of HDAC in human HeLa nuclear extract at 1 uM using Boc-Lys(acetyl)-AMC as fluorogenic substrate measured after 1 hr by flourescence plate reader method relative to control. Type of assay: subcellular. The note with it: Nucleus.

Molecules are shown by their SMILES.

In ChEMBL document CHEMBL5055644, “Cysteine derivatives as acetyl lysine mimics to inhibit zinc-dependent histone deacetylases for treating cancer” (Eur J Med Chem, 2021) one finds inhibition data, which are given here for one compound.

A word on the inhibition: it is the percentage by which the read-out fell short of the control. Read a low inhibition as little suppression.

Consider `O=C(CCCSC[C@H](NS(=O)(=O)c1cccc(F)c1)C(=O)N[C@@H](Cc1c[nH]c2ccccc12)C(=O)NC1CCC1)NO`, for which the inhibition was determined as 82%.
